# Source: patent US3997506A (priority 1974, dated 1976)
# Where “and” joins values, the source holds several entries; their conditions need not be identical. Equal values may be shown once. Read-outs that look alike come from different tables or passages of the source.
# Legend:
# human leucocytes = settings: for number of leucocytes with increasing amounts (in words): 72 hours; for number of leucocytes in absence or presence of substance (in words): very approximative
# Method: Contrary to the previous experiment in which different volumes of a solution of a given concentration have been added, in this experiment the various concentrations were prepared through dilution of a concentrated solution in order to add a same volume of methanol to each culture.
# leucocytes from rats = settings: individual rat, 2 mg/kg oral
# Method: These rats had been kept fasting from the evening before.
# Two groups of rats served as references.
# The first group consisted of rats which were given no substance. The second group consisted of rats which were given a same volume (7.5 ml/kg) of propylene glycol as that received by the treated animals.
# During this experimentation a counting of the leucocytes as well as a leucocytic distribution were made before administration and 6 hours after administration of the substances. Moreover as a cytoxicity index, a measurement of the viability of leucocytes obtained 6 hours after administration was carried out by means of the staining test with Trypan blue.
# phagocytosis = settings: literature, cited from earlier work
# in vitro = settings: human, leucocytes, % of dead cells (Average of 2 determinations), no PHA
# Method: The concentrations of colchicine and of the derivative were prepared through dilution of a concentrated solution in order to add a same volume of methanol to each culture.
# The doses were the following:
# C1 = 0.01 μg/ml of culture
# C2 = 0.1 μg/ml of culture
# C3 = 0.5 μg/ml of culture
# C4 = 1.0 μg/ml of culture
# C5 = 2.5 μg/ml of culture
# C6 = 10.0 μg/ml of culture.
# Samples of culture with or without addition of methanol served as references.
# mouse = settings: intraperitoneal, literature; cited from earlier work
# man = settings: may sometimes be of 6 mg only, literature; cited from earlier work
# rat = settings: intravenous, literature; cited from earlier work
# cat = settings: intravenous, literature; cited from earlier work
# [1] = General toxicity statement (LD50 and toxicity relative to thiocolchicine and colchicine); settings: in vivo; of the weight of the body of animals
# animals = test: as above; settings: in vivo
# viruses = test: Antiviral activity (statement); settings: general statement
# [2] = Table 9, C1 = 2.5 μg/ml, control 412,500
# [3] = Table 9, C3 = 10 μg/ml, control 412,500
# [4] = Table 9, C5 = 30 μg/ml, control 412,500
# [5] = Table 9, C6 = 50 μg/ml, control 412,500
# [6] = Table 11, Culture I, C3 = 10 μg/ml
# [7] = Table 11, Culture I, C6 = 50 μg/ml
# [8] = Table 11, Culture II, C1 = 2.5 μg/ml
# [9] = Table 11, Culture II, C3 = 10 μg/ml
# [10] = Table 11, Culture II, C5 = 30 μg/ml
# [11] = Table 11, Culture II, C6 = 50 μg/ml (two values given)
# [12] = experiment 1, 6 hours after administration, 2 mg/kg
# [13] = experiment 1, before administration, 2 mg/kg
# [14] = experiment 2, before administration, 2 mg/kg
# [15] = experiment 3, before administration, 2 mg/kg
compound,measurement,setting,value
"COc1cc2c(c(OC)c1OC)-c1ccc(OC)c(=O)cc1[C@@H](NC(C)=O)CC2 [Colchicine, colchicine, reference compound]",number of leucocytes with increasing amounts (in words),human leucocytes; Table 9,decreases with increasing amounts of colchicine
same,Count of leucocytes after 72 hours,human leucocytes; [2],"457,000"
same,Count of leucocytes after 72 hours,human leucocytes; [3],"420,000"
same,Count of leucocytes after 72 hours,human leucocytes; [4],"397,000"
same,Count of leucocytes after 72 hours,human leucocytes; [5],"270,000"
same,Count of leucocytes after 72 hours,human leucocytes; [6],"550,000"
same,Count of leucocytes after 72 hours,human leucocytes; [7],"610,000"
same,Count of leucocytes after 72 hours,human leucocytes; [8],"240,000"
same,Count of leucocytes after 72 hours,human leucocytes; [9],"295,000"
same,Count of leucocytes after 72 hours,human leucocytes; [10],"205,000"
same,Count of leucocytes after 72 hours,human leucocytes; [11],"225,000 and 330,000"
same,number of leucocytes in absence or presence of substance (in words),human leucocytes; Table 11,remain substantially the same
same,Leucocytes / mm^3,leucocytes from rats; [12],"9,500 / mm^3 and 7,900 / mm^3 and 7,750 / mm^3"
same,Leucocytes / mm^3,leucocytes from rats; [13],"16,600 / mm^3 and 10,450 / mm^3 and 10,000 / mm^3"
same,Leucocytes / mm^3,"leucocytes from rats; experiment 2, 6 hours after administration, 2 mg/kg","7,950 / mm^3 and 6,950 / mm^3 and 8,900 / mm^3"
same,Leucocytes / mm^3,leucocytes from rats; [14],"9,000 / mm^3 and 7,050 / mm^3 and 9,950 / mm^3"
same,Leucocytes / mm^3,"leucocytes from rats; experiment 3, 6 hours after administration, 2 mg/kg","9,750 / mm^3 and 13,750 / mm^3"
same,Leucocytes / mm^3,leucocytes from rats; [15],"10,750 / mm^3 and 8,500 / mm^3 and 15,250 / mm^3"
same,% phagocytosis,phagocytosis; 0.004 μg of colchicine,68.6 ± 3.7%
same,% phagocytosis,phagocytosis; 0.04 μg of colchicine,54.2 ± 5.4%
same,% phagocytosis,phagocytosis; 0.4 μg of colchicine,39.8 ± 1.2%
same,cytotoxicity at 6 h,in vitro; C1 = 0.01 μg/ml,1%
same,cytotoxicity at 6 h,in vitro; C2 = 0.1 μg/ml,0%
same,cytotoxicity at 6 h,in vitro; C3 = 0.5 μg/ml,2%
same,cytotoxicity at 6 h,in vitro; C4 = 1.0 μg/ml,1%
same,cytotoxicity at 6 h,in vitro; C5 = 2.5 μg/ml,1%
same,cytotoxicity at 6 h,in vitro; C6 = 10.0 μg/ml,1%
same,cytotoxicity at 30 h,in vitro; C1 = 0.01 μg/ml,55%
same,cytotoxicity at 30 h,in vitro; C2 = 0.1 μg/ml,68%
same,cytotoxicity at 30 h,in vitro; C3 = 0.5 μg/ml,54%
same,cytotoxicity at 30 h,in vitro; C4 = 1.0 μg/ml,59%
same,cytotoxicity at 30 h,in vitro; C5 = 2.5 μg/ml,60%
same,cytotoxicity at 30 h,in vitro; C6 = 10.0 μg/ml,46%
same,cytotoxicity at 48 h,in vitro; C1 = 0.01 μg/ml,93%
same,cytotoxicity at 48 h,in vitro; C2 = 0.1 μg/ml,93%
same,cytotoxicity at 48 h,in vitro; C3 = 0.5 μg/ml,91%
same,cytotoxicity at 48 h,in vitro; C4 = 1.0 μg/ml,95%
same,cytotoxicity at 48 h,in vitro; C5 = 2.5 μg/ml,92%
same,cytotoxicity at 48 h,in vitro; C6 = 10.0 μg/ml,92%
same,LD50,mouse,1 mg/kg
same,lethal dose,man,6 mg
same,LD50,rat,1.7 mg/kg
same,LD50,cat,0.25 mg/kg
"COc1cc2c(c(OC)c1OC)-c1ccc(SC)c(=O)cc1C(NC(=O)C13CC4CC(CC(C4)C1)C3)CC2 (single isomer, unassigned) [Derivative, N-desacetyl-N-adamantoyl-thiocolchicine]",LD50,[1],~3000 mg/kg
same,high toxicity relative to colchicine,animals,"about 3,000 times less than that of colchicine"
same,toxicity relative to thiocolchicine,animals,30 times less toxic than thiocolchicine
same,activity against viruses (in words),viruses,active against many viruses
same,number of leucocytes with increasing amounts (in words),human leucocytes; Table 9,still further lowered with the same amounts of the derivative
same,Count of leucocytes after 72 hours,human leucocytes; [2],"487,000"
same,Count of leucocytes after 72 hours,human leucocytes; [3],"360,000"
same,Count of leucocytes after 72 hours,human leucocytes; [4],"180,000"
same,Count of leucocytes after 72 hours,human leucocytes; [5],"157,000"
same,Count of leucocytes after 72 hours,human leucocytes; [6],"430,000"
same,Count of leucocytes after 72 hours,human leucocytes; [7],"515,000"
same,Count of leucocytes after 72 hours,human leucocytes; [8],"140,000"
same,Count of leucocytes after 72 hours,human leucocytes; [9],"200,000"
same,Count of leucocytes after 72 hours,human leucocytes; [10],"245,000"
same,Count of leucocytes after 72 hours,human leucocytes; [11],"290,000 and 345,000"
same,number of leucocytes in absence or presence of substance (in words),human leucocytes; Table 11,remain substantially the same
same,Leucocytes / mm^3,leucocytes from rats; [12],"9,050 / mm^3 and 8,450 / mm^3 and 9,350 / mm^3"
same,Leucocytes / mm^3,leucocytes from rats; [13],"9,050 / mm^3 and 12,250 / mm^3 and 17,525 / mm^3"
same,Leucocytes / mm^3,"leucocytes from rats; experiment 2, 6 hours after administration","5,400 / mm^3"
same,Leucocytes / mm^3,leucocytes from rats; [14],"5,900 / mm^3 and 9,350 / mm^3"
same,Leucocytes / mm^3,"leucocytes from rats; experiment 3, 6 hours after administration","13,500 / mm^3"
same,Leucocytes / mm^3,leucocytes from rats; [15],"13,250 / mm^3 and 7,200 / mm^3"
same,cytotoxicity at 6 h,in vitro; C1 = 0.01 μg/ml,1%
same,cytotoxicity at 6 h,in vitro; C2 = 0.1 μg/ml,1%
same,cytotoxicity at 6 h,in vitro; C3 = 0.5 μg/ml,0%
same,cytotoxicity at 6 h,in vitro; C4 = 1.0 μg/ml,1%
same,cytotoxicity at 6 h,in vitro; C5 = 2.5 μg/ml,1%
same,cytotoxicity at 6 h,in vitro; C6 = 10.0 μg/ml,1%
same,cytotoxicity at 30 h,in vitro; C1 = 0.01 μg/ml,64%
same,cytotoxicity at 30 h,in vitro; C2 = 0.1 μg/ml,54%
same,cytotoxicity at 30 h,in vitro; C3 = 0.5 μg/ml,50%
same,cytotoxicity at 30 h,in vitro; C4 = 1.0 μg/ml,49%
same,cytotoxicity at 30 h,in vitro; C5 = 2.5 μg/ml,45%
same,cytotoxicity at 30 h,in vitro; C6 = 10.0 μg/ml,67%
same,cytotoxicity at 48 h,in vitro; C1 = 0.01 μg/ml,93%
same,cytotoxicity at 48 h,in vitro; C2 = 0.1 μg/ml,95%
same,cytotoxicity at 48 h,in vitro; C3 = 0.5 μg/ml,91%
same,cytotoxicity at 48 h,in vitro; C4 = 1.0 μg/ml,94%
same,cytotoxicity at 48 h,in vitro; C5 = 2.5 μg/ml,88%
same,cytotoxicity at 48 h,in vitro; C6 = 10.0 μg/ml,91%
